Laboratory results reported in PMC7138307 (PLoS ONE, 2020).
Entries after “also recorded” stand apart in the source; their conditions may differ.

Assays:
TAO1, TAO3 = test: Ex vivo KiNativ ATP/ADP probe competition in mouse cortical brain lysates; assay type: binding; conditions: DIKAGNILLTEPGQVK, Lys2
TTBK1, TTBK2 = test: as above; assay type: binding; conditions: DIKPSNFAMGR; Lys2; ADP probe
FES = target: T1, FES (Mus musculus, UniProt P16879); test: as above; assay type: binding; conditions: LRADNTPVAVKSCR, Lys1
T1 construct: homogenized brain lysates were labeled with Desthiobiotin-ADP-acyl phosphate probe; from tissue; host or cells: mouse cortical brain lysate
T1 sequence (P16879 whole entry): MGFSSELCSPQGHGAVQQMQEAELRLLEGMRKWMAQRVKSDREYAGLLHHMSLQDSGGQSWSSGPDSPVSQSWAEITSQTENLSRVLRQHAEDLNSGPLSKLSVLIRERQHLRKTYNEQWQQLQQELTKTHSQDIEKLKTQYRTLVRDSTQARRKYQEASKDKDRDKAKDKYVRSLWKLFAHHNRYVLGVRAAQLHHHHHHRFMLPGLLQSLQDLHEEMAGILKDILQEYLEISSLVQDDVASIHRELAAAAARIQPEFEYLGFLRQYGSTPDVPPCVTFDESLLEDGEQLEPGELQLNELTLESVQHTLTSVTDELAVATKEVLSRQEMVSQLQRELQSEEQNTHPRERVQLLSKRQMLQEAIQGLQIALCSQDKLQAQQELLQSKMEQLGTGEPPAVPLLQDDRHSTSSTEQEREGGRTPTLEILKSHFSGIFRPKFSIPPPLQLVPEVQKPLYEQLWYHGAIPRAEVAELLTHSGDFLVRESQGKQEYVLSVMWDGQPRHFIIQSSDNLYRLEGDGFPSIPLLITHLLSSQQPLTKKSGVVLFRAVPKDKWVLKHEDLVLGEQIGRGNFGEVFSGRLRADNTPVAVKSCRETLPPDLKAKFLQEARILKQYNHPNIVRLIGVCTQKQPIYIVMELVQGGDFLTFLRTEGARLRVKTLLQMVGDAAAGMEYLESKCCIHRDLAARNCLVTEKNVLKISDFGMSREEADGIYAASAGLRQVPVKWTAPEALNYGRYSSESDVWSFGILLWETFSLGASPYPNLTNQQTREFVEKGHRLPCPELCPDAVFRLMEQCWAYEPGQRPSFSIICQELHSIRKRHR

FER = target: T2, FER (Mus musculus, UniProt P70451); test: as above; assay type: binding
T2 construct: from tissue; host or cells: mouse cortical brain lysate
T2 sequence (P70451 whole entry): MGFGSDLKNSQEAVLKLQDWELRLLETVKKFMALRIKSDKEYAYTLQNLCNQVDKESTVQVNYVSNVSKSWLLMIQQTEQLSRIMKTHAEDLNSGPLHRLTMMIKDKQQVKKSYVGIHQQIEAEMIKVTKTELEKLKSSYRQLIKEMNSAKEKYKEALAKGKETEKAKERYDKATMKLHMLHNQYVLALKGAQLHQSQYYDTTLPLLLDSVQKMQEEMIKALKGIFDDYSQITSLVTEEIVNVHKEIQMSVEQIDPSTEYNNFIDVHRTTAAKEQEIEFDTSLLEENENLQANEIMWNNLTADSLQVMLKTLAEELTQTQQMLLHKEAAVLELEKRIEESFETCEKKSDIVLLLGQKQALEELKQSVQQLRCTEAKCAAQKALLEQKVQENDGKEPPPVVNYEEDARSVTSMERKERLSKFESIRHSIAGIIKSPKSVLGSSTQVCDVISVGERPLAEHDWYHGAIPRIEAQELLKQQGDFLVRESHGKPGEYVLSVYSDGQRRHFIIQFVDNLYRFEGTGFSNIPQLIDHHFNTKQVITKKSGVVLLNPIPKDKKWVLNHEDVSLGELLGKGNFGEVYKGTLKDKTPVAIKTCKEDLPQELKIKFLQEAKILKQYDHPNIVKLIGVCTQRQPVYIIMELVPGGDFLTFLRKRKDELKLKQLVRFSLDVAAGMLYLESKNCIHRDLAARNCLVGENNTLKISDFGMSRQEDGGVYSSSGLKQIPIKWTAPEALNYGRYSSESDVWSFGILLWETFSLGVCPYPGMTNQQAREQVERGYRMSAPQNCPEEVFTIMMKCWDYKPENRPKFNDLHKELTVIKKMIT

PIP5K3 = target: T3, PIP5K3 (Mus musculus, UniProt Q9Z1T6); test: as above; assay type: binding; conditions: GGKSGAAFYATEDDRFILK, labeling site ATP
T3 construct: homogenized brain lysates were labeled with Desthiobiotin-ADP-acyl phosphate probe; from tissue; host or cells: mouse cortical brain lysate
T3 sequence (Q9Z1T6 whole entry): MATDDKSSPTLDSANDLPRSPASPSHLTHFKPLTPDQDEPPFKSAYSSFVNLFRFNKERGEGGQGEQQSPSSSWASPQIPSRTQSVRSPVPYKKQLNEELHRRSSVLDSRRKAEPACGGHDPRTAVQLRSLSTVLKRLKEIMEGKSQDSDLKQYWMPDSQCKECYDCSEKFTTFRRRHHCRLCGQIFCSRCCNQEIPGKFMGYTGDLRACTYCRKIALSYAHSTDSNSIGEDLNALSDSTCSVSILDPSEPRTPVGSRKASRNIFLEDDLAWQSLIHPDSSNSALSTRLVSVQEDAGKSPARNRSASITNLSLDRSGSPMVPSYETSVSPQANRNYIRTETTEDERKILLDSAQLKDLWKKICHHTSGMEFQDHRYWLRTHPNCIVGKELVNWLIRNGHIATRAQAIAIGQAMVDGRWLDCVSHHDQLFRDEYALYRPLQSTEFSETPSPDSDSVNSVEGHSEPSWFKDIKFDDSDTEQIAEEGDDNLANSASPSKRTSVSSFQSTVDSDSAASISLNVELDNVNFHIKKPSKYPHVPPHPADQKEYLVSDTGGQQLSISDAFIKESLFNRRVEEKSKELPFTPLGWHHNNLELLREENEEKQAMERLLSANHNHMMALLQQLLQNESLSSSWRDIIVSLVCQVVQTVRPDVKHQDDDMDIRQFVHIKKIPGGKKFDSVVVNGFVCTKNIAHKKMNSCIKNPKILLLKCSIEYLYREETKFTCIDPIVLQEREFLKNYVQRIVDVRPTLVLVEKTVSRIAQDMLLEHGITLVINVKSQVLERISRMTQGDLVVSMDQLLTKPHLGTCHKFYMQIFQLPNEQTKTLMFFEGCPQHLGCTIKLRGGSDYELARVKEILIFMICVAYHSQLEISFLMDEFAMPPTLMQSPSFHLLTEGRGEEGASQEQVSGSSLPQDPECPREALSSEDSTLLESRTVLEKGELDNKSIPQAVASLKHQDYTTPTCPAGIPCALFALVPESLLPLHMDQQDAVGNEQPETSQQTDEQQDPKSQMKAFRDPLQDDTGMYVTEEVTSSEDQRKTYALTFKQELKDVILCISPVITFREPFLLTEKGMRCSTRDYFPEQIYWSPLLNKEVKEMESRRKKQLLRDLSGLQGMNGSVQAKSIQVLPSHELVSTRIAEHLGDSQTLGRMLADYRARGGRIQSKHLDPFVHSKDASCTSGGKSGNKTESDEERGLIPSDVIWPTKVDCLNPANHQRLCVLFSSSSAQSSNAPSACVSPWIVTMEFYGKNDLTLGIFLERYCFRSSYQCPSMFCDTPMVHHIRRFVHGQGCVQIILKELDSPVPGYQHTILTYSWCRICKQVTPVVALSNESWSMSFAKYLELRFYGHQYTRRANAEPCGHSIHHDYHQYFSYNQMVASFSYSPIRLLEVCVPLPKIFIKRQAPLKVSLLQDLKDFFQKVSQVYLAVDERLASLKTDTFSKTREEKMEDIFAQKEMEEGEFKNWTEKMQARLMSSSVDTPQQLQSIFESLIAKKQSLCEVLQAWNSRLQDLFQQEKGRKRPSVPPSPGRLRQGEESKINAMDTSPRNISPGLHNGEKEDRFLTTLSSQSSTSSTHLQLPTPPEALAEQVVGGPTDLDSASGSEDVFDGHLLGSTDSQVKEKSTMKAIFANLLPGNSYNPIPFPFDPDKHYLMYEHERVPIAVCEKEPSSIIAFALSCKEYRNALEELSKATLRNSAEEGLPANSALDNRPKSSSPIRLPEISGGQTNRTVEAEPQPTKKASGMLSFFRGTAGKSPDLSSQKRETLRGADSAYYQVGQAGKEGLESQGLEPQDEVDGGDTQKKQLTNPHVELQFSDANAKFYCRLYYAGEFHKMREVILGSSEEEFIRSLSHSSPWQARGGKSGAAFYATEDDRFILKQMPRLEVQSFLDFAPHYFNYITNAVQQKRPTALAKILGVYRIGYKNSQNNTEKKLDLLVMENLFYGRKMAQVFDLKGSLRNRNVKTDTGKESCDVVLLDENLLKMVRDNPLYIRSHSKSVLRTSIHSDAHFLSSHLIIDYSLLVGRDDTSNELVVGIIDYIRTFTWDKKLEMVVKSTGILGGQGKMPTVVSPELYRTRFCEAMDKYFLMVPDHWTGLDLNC

[1] = Pharmacokinetic experiment, free drug levels in mouse; assay type: in vivo
Description: In vitro plasma and brain protein binding values were generated via the Rapid Equilibrium Dialysis method. The compound of interest was incubated in K2EDTA mouse plasma and rat brain homogenate (homogenized 1:7 (w:v) in 1xPBS) purchased from BioIVT, opposite a buffered compartment of 100mM Potassium phosphate/150mM Sodium chloride, pH 7.4, at 1uM for 4hr and 6hr respectively. […] Free fractions (fu) were then calculated by comparing peak-area ratios of matrix and buffered compartments.
In vivo pharmacokinetic studies were conducted in accordance with Biogen IACUC guidelines in 20-25g C57BL/6 mice purchased from Charles River Labs. A total of 9 mice, split into 3 groups (A,B,C), were dosed subcutaneously at 30mg/kg (3mg/mL; 10mL/kg) in a vehicle of 20% Captisol. […] Mouse brains were harvested for total drug concentration measurement, placed into MP Biomedicals Lysing Matrix D tubes, and stored at -80°C, along with plasma samples to await quantitative analysis.
Total drug concentration in plasma and brain tissue was measured via well-established bioanalytical extraction (protein precipitation) and detection methods (LC-MS/MS). […] Reconstituted extracts were then analyzed via LC-MS/MS (AB Sciex 5500) utilizing a binary HPLC setup (Shimadzu LC-20ADvp) and reverse-phase chromatography gradient (ACE 3 C18-AR). […]

tau phosphorylation = test: Isoflurane induced hypothermia tau phosphorylation in C57Bl/6 mice (western blot of cortex); assay type: in vivo, mouse
Source text: Under basal conditions, tau phosphorylation is tightly regulated by opposing kinase and phosphatase activities. In mice, isoflurane induced hypothermia causes a dramatic increase in tau phosphorylation through the temperature dependent inhibition of PP2A [40]. In the current experiment, we used isoflurane induced hypothermia in C57Bl/6 mice to increase tau phosphorylation in order to test the effects of TTBK1 inhibition. By using wild-type mice we ensured that both the levels of tau and tau kinases were at endogenous levels. […] Based on our in vitro potency assays and pharmacokinetic parameters, the highest dose used (75 mg/kg) was projected to achieve an IC80 of TTBK1 inhibition for the one hour of hypothermia treatment (S3 Fig). […] This further confirms that S422, a site implicated in the early stages of neurofibrillary tangle formation in disease, is likely solely phosphorylated by TTBK1 in the brain.
Fig 6 Acute TTBK1 inhibition reduces tau phosphorylation at disease relevant sites in vivo. […] Phosphorylation signal was normalized to the level of total tau in each sample. Data is represented as the mean +/- SEM. For each phospho-epitope, treatment significance was determined first by one-way ANOVA between all groups; For each dose group, Tukey’s comparison was used to determine significance versus the Vehicle treated control. (B) Correlation within each brain sample between the level of tau phosphorylation at S422 and the measured concentration of free drug (R^2 = 0.4254; p = 0.0569).
Samples were lysed in Pierce RIPA lysis and extraction buffer (Thermo Fisher Scientific, Waltham, MA) supplemented with 1% Halt protease and phosphatase inhibitor cocktail (Thermo Fisher Scientific, Waltham, MA) and centrifuged at 14000 x g for 20 min at 4°C to clear the lysate. Protein concentrations were determined using the Direct Detect Infrared Spectrometer (EMD Millipore Corp., Burlington, MA) and 10μg of each sample was denatured in 6X SDS sample buffer (Boston Bioproducts, Ashland, MA) for 7 minutes at 90°C. Proteins were loaded into a Criterion 7.5% tris-glycine gel (Bio-Rad, Hercules, CA) and separated by SDS-PAGE at 120V for 120 minutes. The gel was transferred to an IBlot2 nitrocellulose membrane (Invitrogen, Carlsbad, CA), blocked with TBST blocking buffer (Li-cor Biosciences, Lincoln, NE) for 1 hour, and washed three times with TBST. The membrane was probed with primary antibodies (1:1000 dilution) in antibody dilution buffer (1:1 TBST blocking buffer and 1X TBST) overnight at 4°C. The following antibodies were used for immunoblotting: TTBK1 (Cat# PA5-20686, Invitrogen, Carlsbad, CA), Tau-5 (Cat# ab80579, Abcam, Cambridge, UK), phospho-Tau S422 (Cat# ab79415, Abcam, Cambridge, UK), S198 (Cat# ab79540, Abcam, Cambridge, UK), AT8 S202/T205 (Cat# MN1020, Invitrogen, Carlsbad, CA), S214 (Cat# ab170892, Abcam, Cambridge, UK), AT180 T231 (Cat# MN1040, Invitrogen, Carlsbad, CA), S262 (Cat# ab131354, Abcam, Cambridge, UK), S356 (Cat# ab75603, Abcam, Cambridge, UK), S396 (Cat# ab109390, Abcam, Cambridge, UK), GAPDH (Cat# 5174S, Cell Signaling Technology, Danvers, MA), and β-actin (Cat# 926–42212, Li-cor Biosciences, Lincoln, NE). The blot was then washed in triplicate with TBST and incubated for 1 hour with secondary antibody (1:10,000 dilution of IRDye 800 anti-mouse IgG and IRDye 680 anti-rabbit IgG, Li-cor Biosciences, Lincoln, NE) in antibody dilution buffer. After a final triplicate wash with TBST, the blot was visualized using the Odyssey CLx imaging system (Li-cor Biosciences, Lincoln, NE).
Seven-week-old male C576Bl/6 mice were used for all hypothermia experiments (Charles River Laboratories, Wilmington, MA). Hypothermia was induced by exposure to vaporized isoflurane in an anesthetic induction chamber attached to a V-1 Tabletop Anesthesia System (VetEquip, Inc., Livermore, CA). The mice remained in the chamber for 60 minutes with a constant isoflurane concentration of 2%. […]

SMILES: CCC(C)(O)C#Cc1cc2c(ccn2-c2ccnc(N)n2)cn1 (stereo not drawn) [BIIB-TTBK1i]
- Percent Inhibition at 1μM (TAO1, TAO3; ADP probe): 66.8%
- Percent Inhibition at 1μM (TAO1, TAO3; ATP probe): 69.5%
- Percent Inhibition at 1μM (TTBK1, TTBK2): 95.8%
- Percent Inhibition at 1μM (FES; ADP probe): 79.8%
- Percent Inhibition at 1μM (FES; ATP probe): 61.2%
- Percent Inhibition at 1μM (FER; QEDGGVYSSSGLKQIPIK, Activation Loop, ADP probe): 66.7%
- Percent Inhibition at 1μM (FER; QEDGGVYSSSGLKQIPIK, Protein Kinase Domain, ATP probe): 69.4%
- Percent Inhibition at 1μM (FER; TPVAIKTCKEDLPQELK, Lys1, ADP probe): 79.1%
- Percent Inhibition at 1μM (FER; TPVAIKTCKEDLPQELK, Lys1, ATP probe): 74.9%
- Percent Inhibition at 1μM (PIP5K3; ADP probe): 90.2%
- Percent Inhibition at 1μM (PIP5K3; ATP probe): 95.9%
- clearance rate [1]: rapid
- average reduction in tau phosphorylation at S422 (tau phosphorylation; 25mg/kg I.P., one hour, p = 0.0213 vs Vehicle): 60%
- hypothermia induced tau phosphorylation at S422 (tau phosphorylation; 50mg/kg I.P., one hour, p = 0.0005 vs Vehicle): completely restored to basal levels; also recorded: complete reversal
- tau phosphorylation at AT180 (Thr231) (tau phosphorylation; 75mg/kg I.P. p = 0.0002 vs Vehicle (50mg/kg p = 0.0005; 25mg/kg p = 0.0571)): significant decrease
- tau phosphorylation at S396 (tau phosphorylation; 75mg/kg I.P. p = 0.0002 vs Vehicle (50mg/kg p = 0.011; 25mg/kg p = 0.8492)): significant decrease
- tau phosphorylation at AT8 (S202/T205) (tau phosphorylation; 75mg/kg I.P. p = 0.0066 vs Vehicle (50mg/kg p = 0.5391; 25mg/kg p>0.999)): significant decrease
- hypothermia induced tau phosphorylation at S422 (tau phosphorylation; 75mg/kg I.P., one hour, p = 0.0007 vs Vehicle): completely restored to basal levels; also recorded: significant decrease
